Test results as given in ChEMBL document CHEMBL1828524, “Monoamine oxidase inhibition by selected anilide derivatives” (Eur J Med Chem, 2011).

Assays:
[1] = biological target: T1, Amine oxidase [flavin-containing] A (Homo sapiens, UniProt P21397); assay: Inhibition of human recombinant MAO-A assessed as oxidation of kynuramine to 4-hydroxyquinoline after 20 mins
T1 sequence (P21397 whole entry): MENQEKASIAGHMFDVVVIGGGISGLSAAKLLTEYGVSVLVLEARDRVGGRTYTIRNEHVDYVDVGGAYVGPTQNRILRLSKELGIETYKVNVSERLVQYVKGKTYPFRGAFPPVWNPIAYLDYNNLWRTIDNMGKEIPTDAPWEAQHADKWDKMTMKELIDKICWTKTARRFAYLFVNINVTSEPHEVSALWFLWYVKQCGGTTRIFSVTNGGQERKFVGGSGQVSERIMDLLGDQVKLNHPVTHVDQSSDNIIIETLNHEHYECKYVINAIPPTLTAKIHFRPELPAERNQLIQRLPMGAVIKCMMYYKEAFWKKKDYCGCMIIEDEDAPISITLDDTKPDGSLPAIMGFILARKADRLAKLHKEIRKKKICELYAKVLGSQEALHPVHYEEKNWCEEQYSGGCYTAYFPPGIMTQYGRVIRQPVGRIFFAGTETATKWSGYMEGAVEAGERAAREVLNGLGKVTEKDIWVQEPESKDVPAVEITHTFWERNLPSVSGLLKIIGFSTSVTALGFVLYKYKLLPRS

[2] = biological target: T2, Amine oxidase [flavin-containing] B (Homo sapiens, UniProt P27338); assay: Inhibition of human recombinant MAO-B assessed as oxidation of kynuramine to 4-hydroxyquinoline after 20 mins
T2 sequence (P27338 whole entry): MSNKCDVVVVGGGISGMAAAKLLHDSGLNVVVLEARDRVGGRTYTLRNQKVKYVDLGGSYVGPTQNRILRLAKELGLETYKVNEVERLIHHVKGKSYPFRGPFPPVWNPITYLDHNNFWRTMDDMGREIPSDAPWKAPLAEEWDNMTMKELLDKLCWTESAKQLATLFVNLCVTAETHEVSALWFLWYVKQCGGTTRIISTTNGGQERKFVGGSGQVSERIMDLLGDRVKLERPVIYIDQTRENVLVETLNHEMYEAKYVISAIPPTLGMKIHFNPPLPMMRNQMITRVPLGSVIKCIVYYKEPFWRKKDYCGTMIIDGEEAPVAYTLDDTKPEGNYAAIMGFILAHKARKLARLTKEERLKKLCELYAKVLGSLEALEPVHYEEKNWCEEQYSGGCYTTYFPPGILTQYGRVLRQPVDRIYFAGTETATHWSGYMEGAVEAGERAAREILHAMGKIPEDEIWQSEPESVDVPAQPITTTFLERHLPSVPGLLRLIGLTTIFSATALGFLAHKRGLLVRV

[3] = biological target: T1, Amine oxidase [flavin-containing] A; assay: Inhibition of human recombinant MAO-A assessed as oxidation of kynuramine to 4-hydroxyquinoline at 100 uM after 20 mins

Row | SMILES | IC50 [1] [µM] | IC50 [2] [µM] | inhibition (INH) [3]
1 | O=C(/C=C/C=C/c1ccccc1)Nc1ccccc1 |  | 5.16 | Not Active
2 | O=C(C/C=C/c1ccccc1)Nc1cccc(Cl)c1 | 58.4 | 23.5 | 
3 | O=C(C/C=C/c1ccccc1)Nc1ccccc1 | 297 | 33.2 | 
4 | O=C(/C=C/c1cccc(O)c1)Nc1cccc(Br)c1 |  | 1.01 | Not Active
5 | O=C(/C=C/C=C/c1ccccc1)Nc1cccc(Cl)c1 | 98.2 | 2.2 | 
6 | O=C(C/C=C/c1ccccc1)Nc1cccc(Br)c1 | 34.5 | 30.9 | 
7 | O=C(/C=C/C=C/c1ccccc1)Nc1cccc(Br)c1 | 105 | 2.73 | 
8 | Cc1cccc(NC(=O)/C=C/C=C/c2ccccc2)c1 | 335 | 6.65 | 
9 | N#Cc1cccc(/C=C/C(=O)Nc2cccc(Cl)c2)c1 | 13.5 | 0.09 | 
10 | N#Cc1ccc(/C=C/C(=O)Nc2cccc(Cl)c2)cc1 | 184 | 0.407 | 

Continued by falling IC50 [2], values first:

Row | IC50 [1] [µM] | IC50 [2] [µM] | inhibition (INH) [3] | SMILES
11 | 74.8 | 48.1 |  | Cc1cccc(NC(=O)C/C=C/c2ccccc2)c1
12 | 48.1 | 4.5 |  | Cc1cccc(NC(=O)/C=C/c2ccccc2)c1 [N-M-TOLYLCINNAMAMIDE]
13 | 16.7 | 0.447 |  | O=C(/C=C/c1ccccc1)Nc1cccc(Br)c1
14 | 36.2 | 0.289 |  | N#Cc1ccc(/C=C/C(=O)Nc2cccc(Br)c2)cc1
15 | 27.2 | 0.059 |  | N#Cc1cccc(/C=C/C(=O)Nc2cccc(Br)c2)c1
16 | 35.6 | 0.026 |  | O=C(/C=C/c1ccc(O)cc1)Nc1cccc(Br)c1
